# According to US9770439B2, “Hepatitis C virus inhibitors” (priority 2013, dated 2017):
# Where two headings read alike, the source gives them in different places.
# Assays:
# [1] = test system: HCV replicon, genotype-1a variant with glutamine 30 changed to glutamate in the NS5A protein; details: cited from earlier work; for EC50: genotype 1a Q30E replicon
# [2] = test system: HCV replicon, genotype 1a L31V variant with leucine 31 changed to valine in the NS5A protein; assay type: cell-based; details: BMS-790052 titrated with N47 fixed at 200 nM, genotype 1a L31V
# [3] = test system: HCV replicon, genotype 1a Y93H variant with tyrosine 93 changed to histidine in the NS5A protein; assay type: cell-based; details: BMS-790052 titrated with N47 fixed at 200 nM, genotype 1a Y93H
# Experimental: Combinations can be examined for synergistic activity using a variety of putative NS5A-targeting compounds and a variety of test compounds. […] The test compound can be chosen from compounds exemplified below, which were prepared by methods known in the art, or from others disclosed in the literature.
# Similarly, BMS-790052 can be tested singly and in combination with a fixed amount of compound N47 in the HCV replicon cell based assay consisting of the genotype 1a Y93H variant with tyrosine 93 changed to histidine in the NS5A protein.
# [4] = test system: HCV replicon, genotype-1a variant with glutamine 30 changed to glutamate in the NS5A protein; assay type: cell-based
# Description: The NS5A synergistic inhibitory effect of test compounds can be determined using various amounts of an NS5A-targeting compound with titration of a second compound of interest. […] In one embodiment, the HCV genotype strain can be genotype 1a containing a change at amino acid 30 of the NS5A protein consisting of glutamine to glutamate. The test compound can be chosen from compounds listed above or from others present in the literature.
# [5] = compound alone, read-out: EC50, titrated singly
smiles,measurement,setting,value
CC(C)CC(=O)N[C@H](c1ncc(-c2ccc(-c3ccc(-c4cnc([C@@H](NC(=O)CC(C)C)C(C)C)[nH]4)cc3)cc2)[nH]1)C(C)C [Compound P-55],synergistic inhibitory effect with the combination (fold),"[1]; P-55 titrated with BMS-790052 fixed at 200 nM, genotype 1a Q30E",> 100 fold
same,EC50,"[1]; BMS-790052 fixed at 200 nM, read-out: EC50 of P-55 in the presence of a fixed amount of BMS-790052",~2 nM
same,EC50,[1]; [5],> 200 nM
"COC(=O)N[C@H](C(=O)N1CCC[C@H]1c1ncc(-c2ccc(-c3ccc(-c4cnc([C@@H]5CCCN5C(=O)[C@@H](NC(=O)OC)C(C)C)[nH]4)cc3)cc2)[nH]1)C(C)C [BMS-790052, reference compound]",synergistic inhibitory effect with the combination (fold),[2],> 100 fold
same,synergistic inhibitory effect for the combination (fold),[3],> 100 fold
same,reciprocal synergistic inhibitory effect for the combination (fold),"[1]; BMS-790052 titrated with P-55 fixed at 200 nM, genotype 1a Q30E",~100 fold
same,EC50,"[1]; P-55 fixed at 200 nM, read-out: EC50 of BMS-790052 in the presence of a fixed amount of P-55",~2 nM
same,EC50,[1]; [5],~200 nM
CC(C)(C)C(=O)N[C@H](c1ncc(-c2ccc(-c3ccc(-c4cnc([C@@H](NC(=O)C(C)(C)C)C(C)(C)CF)[nH]4)cc3)cc2)[nH]1)C(C)(C)CF [Compound Y-68],Fold-Synergistic 1a (Q30E),"[4]; ranking of synergist activity, test compound titrated with BMS-790052 fixed at 200 nM, genotype 1a Q30E replicon",>100
"COc1ccccc1C(O)C1(C(=O)N[C@H](c2nc(-c3ccc(-c4ccc(-c5c[nH]c([C@@H](NC(=O)C6(C(O)c7ccccc7OC)CC6)C(C)(C)C)n5)cc4)cc3)c[nH]2)C(C)(C)C)CC1 (single isomer, unassigned) [Compound N-135C]",Fold-Synergistic 1a (Q30E),[4],>100
"COC(C)(CCO)C(=O)N[C@H](c1nc(-c2ccc(-c3ccc(-c4c[nH]c([C@@H](NC(=O)C(C)(CCO)OC)C(C)(C)C)n4)cc3)cc2)c[nH]1)C(C)(C)C (single isomer, unassigned) [Compound W-258]",Fold-Synergistic 1a (Q30E),[4],>100
